Data reported in PubChem BioAssay AID1918935 (Molecular Pharmacology Branch, DTP, NCI, 2023).

Test system: 324938-238-R-J1-PDC complex spheroid viability
Test: Anticancer human tumor 324938-238-R-J1-PDC patient-derived bladder carcinoma cell line growth inhibition
Conditions: for IC50: curve of first compound; for viability, T/C: stronger effect = lower value
In short: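 Multicellular complex spheroids of tumor cells with human endothelial cells (HUVEC) and mesenchymal stem cells; the LSD1 inhibitor iadademstat was combined with standard-of-care or investigational agents. Top concentration at or near clinical Cmax, half-log dilutions; final DMSO ≤0.25%.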

[1] = second compound 0.1 µM, first compound 0.000316 µM
[2] = second compound 0.1 µM, first compound 0.001 µM
[3] = second compound 0.1 µM, first compound 0.00316 µM
[4] = second compound 0.1 µM, first compound 0.01 µM
[5] = second compound 0.1 µM, first compound 0.0316 µM
[6] = second compound 0.1 µM, first compound 0.1 µM
[7] = second compound 0.316 µM, first compound 0.000316 µM
[8] = second compound 0.316 µM, first compound 0.001 µM
[9] = second compound 0.316 µM, first compound 0.00316 µM
[10] = second compound 0.316 µM, first compound 0.01 µM
[11] = second compound 0.316 µM, first compound 0.0316 µM
[12] = second compound 0.316 µM, first compound 0.1 µM
[13] = second compound 1 µM, first compound 0.000316 µM
[14] = second compound 1 µM, first compound 0.001 µM
[15] = second compound 1 µM, first compound 0.00316 µM
[16] = second compound 1 µM, first compound 0.01 µM
[17] = second compound 1 µM, first compound 0.0316 µM
[18] = second compound 1 µM, first compound 0.1 µM
[19] = second compound 3.16 µM, first compound 0.000316 µM
[20] = second compound 3.16 µM, first compound 0.001 µM
[21] = second compound 3.16 µM, first compound 0.00316 µM
[22] = second compound 3.16 µM, first compound 0.01 µM
[23] = second compound 3.16 µM, first compound 0.0316 µM
[24] = second compound 3.16 µM, first compound 0.1 µM
[25] = second compound 10 µM, first compound 0.000316 µM
[26] = second compound 10 µM, first compound 0.001 µM
[27] = second compound 10 µM, first compound 0.00316 µM
[28] = second compound 10 µM, first compound 0.01 µM
[29] = second compound 10 µM, first compound 0.0316 µM
[30] = second compound 10 µM, first compound 0.1 µM
[31] = second compound 0.1 µM, first compound 0.00949 µM
[32] = second compound 0.1 µM, first compound 0.03 µM
[33] = second compound 0.1 µM, first compound 0.0949 µM
[34] = second compound 0.1 µM, first compound 0.3 µM
[35] = second compound 0.1 µM, first compound 0.949 µM
[36] = second compound 0.1 µM, first compound 3 µM
[37] = second compound 0.316 µM, first compound 0.00949 µM
[38] = second compound 0.316 µM, first compound 0.03 µM
[39] = second compound 0.316 µM, first compound 0.0949 µM
[40] = second compound 0.316 µM, first compound 0.3 µM
[41] = second compound 0.316 µM, first compound 0.949 µM
[42] = second compound 0.316 µM, first compound 3 µM
[43] = second compound 1 µM, first compound 0.00949 µM
[44] = second compound 1 µM, first compound 0.03 µM
[45] = second compound 1 µM, first compound 0.0949 µM
[46] = second compound 1 µM, first compound 0.3 µM
[47] = second compound 1 µM, first compound 0.949 µM
[48] = second compound 1 µM, first compound 3 µM
[49] = second compound 3.16 µM, first compound 0.00949 µM
[50] = second compound 3.16 µM, first compound 0.03 µM
[51] = second compound 3.16 µM, first compound 0.0949 µM
[52] = second compound 3.16 µM, first compound 0.3 µM
[53] = second compound 3.16 µM, first compound 0.949 µM
[54] = second compound 3.16 µM, first compound 3 µM
[55] = second compound 10 µM, first compound 0.00949 µM
[56] = second compound 10 µM, first compound 0.03 µM
[57] = second compound 10 µM, first compound 0.0949 µM
[58] = second compound 10 µM, first compound 0.3 µM
[59] = second compound 10 µM, first compound 0.949 µM
[60] = second compound 10 µM, first compound 3 µM
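Note: spheroids also contain HUVEC and human MSCs and agents combined with iadademstat; spheroids exposed to agents for 7 days before readout.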

## CC(C)CC(NC(=O)C(Cc1ccccc1)NC(=O)c1cnccn1)B(O)O (stereo not given) + NC1CCC(NC2CC2c2ccccc2)CC1
Second compound 0.1 µM
  IC50: 0.472 nM
Second compound 0.316 µM
  IC50: 0.443 nM
Second compound 1 µM
  IC50: 0.483 nM
Second compound 3.16 µM
  IC50: 0.442 nM
Second compound 10 µM
  IC50: 0.434 nM
[1]
  viability, T/C: 66.8%
[2]
  viability, T/C: 18.7%
[3]
  viability, T/C: 0.06%
[4]
  viability, T/C: 0.03%
[5]
  viability, T/C: 0.03%
[6]
  viability, T/C: 0.15%
[7]
  viability, T/C: 64.9%
[8]
  viability, T/C: 14.3%
[9]
  viability, T/C: 0.14%
[10]
  viability, T/C: 0.01%
[11]
  viability, T/C: 0.02%
[12]
  viability, T/C: 0.12%
[13]
  viability, T/C: 72.2%
[14]
  viability, T/C: 12.1%
[15]
  viability, T/C: 0.1%
[16]
  viability, T/C: 0.01%
[17]
  viability, T/C: 0.73%
[18]
  viability, T/C: 0.11%
[19]
  viability, T/C: 65%
[20]
  viability, T/C: 13.8%
[21]
  viability, T/C: 0.43%
[22]
  viability, T/C: 0.02%
[23]
  viability, T/C: 0.03%
[24]
  viability, T/C: 0.12%
[25]
  viability, T/C: 65%
[26]
  viability, T/C: 10.8%
[27]
  viability, T/C: 0.12%
[28]
  viability, T/C: 0.29%
[29]
  viability, T/C: 0.1%
[30]
  viability, T/C: 0.17%

## CC(C)CC(NC(=O)CNC(=O)c1cc(Cl)ccc1Cl)B1OC(=O)CC(CC(=O)O)(C(=O)O)O1 (stereo not given) + NC1CCC(NC2CC2c2ccccc2)CC1
Second compound 0.1 µM
  IC50: 2.3 nM
Second compound 0.316 µM
  IC50: 1.97 nM
Second compound 1 µM
  IC50: 1.98 nM
Second compound 3.16 µM
  IC50: 1.72 nM
Second compound 10 µM
  IC50: 1.75 nM
[1]
  viability, T/C: 78.5%
[2]
  viability, T/C: 76.7%
[3]
  viability, T/C: 39.9%
[4]
  viability, T/C: 5.51%
[5]
  viability, T/C: 0.09%
[6]
  viability, T/C: 0.14%
[7]
  viability, T/C: 88.5%
[8]
  viability, T/C: 68.9%
[9]
  viability, T/C: 37.8%
[10]
  viability, T/C: 6.24%
[11]
  viability, T/C: 0.11%
[12]
  viability, T/C: 0.14%
[13]
  viability, T/C: 87.1%
[14]
  viability, T/C: 62.5%
[15]
  viability, T/C: 44.2%
[16]
  viability, T/C: 5.29%
[17]
  viability, T/C: 0.06%
[18]
  viability, T/C: 0.13%
[19]
  viability, T/C: 80.2%
[20]
  viability, T/C: 65.2%
[21]
  viability, T/C: 33%
[22]
  viability, T/C: 3.57%
[23]
  viability, T/C: 0.05%
[24]
  viability, T/C: 0.16%
[25]
  viability, T/C: 78.3%
[26]
  viability, T/C: 76.2%
[27]
  viability, T/C: 22.7%
[28]
  viability, T/C: 2.57%
[29]
  viability, T/C: 0.13%
[30]
  viability, T/C: 0.21%

## Nc1ccccc1NC(=O)c1ccc(CNC(=O)OCc2cccnc2)cc1 + NC1CCC(NC2CC2c2ccccc2)CC1
Second compound 0.1 µM
  IC50: 412 nM
Second compound 0.316 µM
  IC50: 390 nM
Second compound 1 µM
  IC50: 465 nM
Second compound 3.16 µM
  IC50: 363 nM
Second compound 10 µM
  IC50: 375 nM
[31]
  viability, T/C: 92%
[32]
  viability, T/C: 81.6%
[33]
  viability, T/C: 68.5%
[34]
  viability, T/C: 54.4%
[35]
  viability, T/C: 39.9%
[36]
  viability, T/C: 17.2%
[37]
  viability, T/C: 84.3%
[38]
  viability, T/C: 88%
[39]
  viability, T/C: 67.6%
[40]
  viability, T/C: 55%
[41]
  viability, T/C: 34.6%
[42]
  viability, T/C: 12.9%
[43]
  viability, T/C: 79%
[44]
  viability, T/C: 76.2%
[45]
  viability, T/C: 73.3%
[46]
  viability, T/C: 54.5%
[47]
  viability, T/C: 39.2%
[48]
  viability, T/C: 14.9%
[49]
  viability, T/C: 81.5%
[50]
  viability, T/C: 72.4%
[51]
  viability, T/C: 62%
[52]
  viability, T/C: 54.9%
[53]
  viability, T/C: 37.9%
[54]
  viability, T/C: 16%
[55]
  viability, T/C: 76.8%
[56]
  viability, T/C: 68.9%
[57]
  viability, T/C: 68.2%
[58]
  viability, T/C: 50.5%
[59]
  viability, T/C: 37.8%
[60]
  viability, T/C: 12.4%

## O=C(C=Cc1cccc(S(=O)(=O)Nc2ccccc2)c1)NO + NC1CCC(NC2CC2c2ccccc2)CC1
Second compound 0.1 µM
  IC50: 103 nM
Second compound 0.316 µM
  IC50: 101 nM
Second compound 1 µM
  IC50: 41.7 nM
Second compound 3.16 µM
  IC50: 47.2 nM
Second compound 10 µM
  IC50: 10.4 nM
[31]
  viability, T/C: 68%
[32]
  viability, T/C: 59.9%
[33]
  viability, T/C: 51.5%
[34]
  viability, T/C: 37.4%
[35]
  viability, T/C: 26.7%
[36]
  viability, T/C: 7.18%
[37]
  viability, T/C: 61.6%
[38]
  viability, T/C: 63.2%
[39]
  viability, T/C: 50.4%
[40]
  viability, T/C: 34.6%
[41]
  viability, T/C: 25.9%
[42]
  viability, T/C: 5.69%
[43]
  viability, T/C: 64.6%
[44]
  viability, T/C: 49.9%
[45]
  viability, T/C: 40.8%
[46]
  viability, T/C: 32.1%
[47]
  viability, T/C: 26%
[48]
  viability, T/C: 3.87%
[49]
  viability, T/C: 65.3%
[50]
  viability, T/C: 53.5%
[51]
  viability, T/C: 40%
[52]
  viability, T/C: 33.8%
[53]
  viability, T/C: 24.7%
[54]
  viability, T/C: 4.61%
[55]
  viability, T/C: 52.7%
[56]
  viability, T/C: 47.2%
[57]
  viability, T/C: 42.2%
[58]
  viability, T/C: 34.4%
[59]
  viability, T/C: 30.8%
[60]
  viability, T/C: 3.5%

## O=C(c1cc(Cc2n[nH]c(=O)c3ccccc23)ccc1F)N1CCN(C(=O)C2CC2)CC1 + NC1CCC(NC2CC2c2ccccc2)CC1
Second compound 0.1 µM
  IC50: 2900 nM
Second compound 0.316 µM
  IC50: 2760 nM
Second compound 1 µM
  IC50: 3970 nM
Second compound 3.16 µM
  IC50: 2720 nM
Second compound 10 µM
  IC50: 2480 nM
[5]
  viability, T/C: 80.8%
[6]
  viability, T/C: 80.9%
Second compound 0.1 µM, first compound 0.316 µM
  viability, T/C: 86.4%
Second compound 0.1 µM, first compound 1 µM
  viability, T/C: 68.1%
Second compound 0.1 µM, first compound 3.16 µM
  viability, T/C: 49.9%
Second compound 0.1 µM, first compound 10 µM
  viability, T/C: 41.5%
[11]
  viability, T/C: 78.7%
[12]
  viability, T/C: 82.7%
Second compound 0.316 µM, first compound 0.316 µM
  viability, T/C: 83.7%
Second compound 0.316 µM, first compound 1 µM
  viability, T/C: 64.4%
Second compound 0.316 µM, first compound 3.16 µM
  viability, T/C: 49.8%
Second compound 0.316 µM, first compound 10 µM
  viability, T/C: 36.5%
[17]
  viability, T/C: 77.7%
[18]
  viability, T/C: 71.3%
Second compound 1 µM, first compound 0.316 µM
  viability, T/C: 80%
Second compound 1 µM, first compound 1 µM
  viability, T/C: 69.3%
Second compound 1 µM, first compound 3.16 µM
  viability, T/C: 53.3%
Second compound 1 µM, first compound 10 µM
  viability, T/C: 37.9%
[23]
  viability, T/C: 73.2%
[24]
  viability, T/C: 74.1%
Second compound 3.16 µM, first compound 0.316 µM
  viability, T/C: 73.2%
Second compound 3.16 µM, first compound 1 µM
  viability, T/C: 71%
Second compound 3.16 µM, first compound 3.16 µM
  viability, T/C: 46.9%
Second compound 3.16 µM, first compound 10 µM
  viability, T/C: 39.6%
[29]
  viability, T/C: 70.6%
[30]
  viability, T/C: 65.8%
Second compound 10 µM, first compound 0.316 µM
  viability, T/C: 77%
Second compound 10 µM, first compound 1 µM
  viability, T/C: 59.3%
Second compound 10 µM, first compound 3.16 µM
  viability, T/C: 49.9%
Second compound 10 µM, first compound 10 µM
  viability, T/C: 45.1%
